Test system: adult patients with Type 1 Diabetes Mellitus who have inadequate glycemic control with insulin therapy
Assay: inTandem 1 and inTandem 2 pooled clinical studies, safety events / main risks
Format: in vivo, human
Conditions: Week 52
[1] = 200 mg (N = 219), Baseline BMI <27 kg/m^2
[2] = 200 mg (N = 305), Baseline BMI ≥27 kg/m^2
[3] = 200 mg, Baseline BMI <27 kg/m^2
[4] = 200 mg, Baseline BMI ≥27 kg/m^2
[5] = 400 mg (N = 212), Baseline BMI <27 kg/m^2
[6] = 400 mg (N = 313), Baseline BMI ≥27 kg/m^2

With `CCOc1ccc(Cc2cc([C@@H]3O[C@H](SC)[C@@H](O)[C@H](O)[C@H]3O)ccc2Cl)cc1` [sotagliflozin, (2S,3R,4R,5S,6R)-2-(4-chloro-3-(4-ethoxybenzyl)phenyl)-6-(methylthio)tetrahydro-2H-pyran-3,4,5-triol] the “Genital Mycotic Infections (male), Events [n (%) n]: patients n” value (200 mg (N = 108), Baseline BMI <27 kg/m^2) was 2, the “Genital Mycotic Infections (female), Events [n (%) n]: patients n” value (200 mg (N = 111), Baseline BMI <27 kg/m^2) was 8 and the “Genital Mycotic Infections (female), Events [n (%) n]: patients n” value (200 mg (N = 148), Baseline BMI ≥27 kg/m^2) was 32. For the same compound, the “Genital Mycotic Infections (male), Events [n (%) n]: patients n” value (200 mg (N = 157), Baseline BMI ≥27 kg/m^2) was 6, the “Positively Adjudicated Diabetic Ketoacidosis, Events [n (%) n]: patients n” value [1] was 7 and the “Positively Adjudicated Severe Hypoglycemia, Events [n (%) n]: patients n” value [1] was 17. The “Positively Adjudicated Diabetic Ketoacidosis, Events [n (%) n]: patients n” value [2] was 8, the “Positively Adjudicated Severe Hypoglycemia, Events [n (%) n]: patients n” value [2] was 13 and the “Diarrhea, EAIR per 1,000 Subject-years (95% CL)” value [3] was 89.76 (48.29, 131.23) per 1,000 Subject-years. For the same compound, the “Diarrhea, Events [n (%) n]: events n” value [3] was 23, the “Diarrhea, Events [n (%) n]: patients (%)” value [3] was 8.2% and the “Diarrhea, Events [n (%) n]: patients n” value [3] was 18. The “Diarrhea, Events per Subject per Year” value [3] was 0.115 Events per Subject per Year, the “Diarrhea, Relative Risk of EAIR (95% CL) Versus Placebo” value [3] was 2.60 (1.11, 6.68) and the “Documented hypoglycemia <55 mg/dL, Events per Subject per Year” value [3] was 16.86 Events per Subject per Year. For the same compound, the “Genital Mycotic Infections (female), EAIR per 1,000 Subject-years (95% CL)” value [3] was 78.17 (24.00, 132.34) per 1,000 Subject-years, the “Genital Mycotic Infections (female), Events [n (%) n]: events n” value [3] was 10 and the “Genital Mycotic Infections (female), Events [n (%) n]: patients (%)” value [3] was 7.2%. The “Genital Mycotic Infections (female), Events per Subject per Year” value [3] was 0.098 Events per Subject per Year, the “Genital Mycotic Infections (female), Relative Risk of EAIR (95% CL) Versus Placebo” value [3] was 2.57 (0.70, 11.96) and the “Genital Mycotic Infections (male), EAIR per 1,000 Subject-years (95% CL)” value [3] was 20.37 (0.00, 48.60) per 1,000 Subject-years. The “Genital Mycotic Infections (male), Events [n (%) n]: events n” value [3] was 2, the “Genital Mycotic Infections (male), Events [n (%) n]: patients (%)” value [3] was 1.9% and the “Genital Mycotic Infections (male), Events per Subject per Year” value [3] was 0.020 Events per Subject per Year. For the same compound, the “Genital Mycotic Infections (male), Relative Risk of EAIR (95% CL) Versus Placebo” value [3] was 1.06 (0.11, 10.19), the “Positively Adjudicated Diabetic Ketoacidosis, EAIR per 1,000 Subject-years (95% CL)” value [3] was 34.91 (9.05, 60.77) per 1,000 Subject-years and the “Positively Adjudicated Diabetic Ketoacidosis, Events [n (%) n]: events n” value [3] was 7. The “Positively Adjudicated Diabetic Ketoacidosis, Events [n (%) n]: patients (%)” value [3] was 3.2%, the “Positively Adjudicated Diabetic Ketoacidosis, Events per Subject per Year” value [3] was 0.035 Events per Subject per Year and the “Positively Adjudicated Severe Hypoglycemia, EAIR per 1,000 Subject-years (95% CL)” value [3] was 84.77 (44.48, 125.07) per 1,000 Subject-years. For the same compound, the “Positively Adjudicated Severe Hypoglycemia, Events [n (%) n]: events n” value [3] was 43, the “Positively Adjudicated Severe Hypoglycemia, Events [n (%) n]: patients (%)” value [3] was 7.8% and the “Positively Adjudicated Severe Hypoglycemia, Events per Subject per Year” value [3] was 0.214 Events per Subject per Year. The “Positively Adjudicated Severe Hypoglycemia, Relative Risk of EAIR (95% CL) Versus Placebo” value [3] was 1.01 (0.51, 2.00), the “Diarrhea, EAIR per 1,000 Subject-years (95% CL)” value [4] was 57.25 (29.20, 85.30) per 1,000 Subject-years and the “Diarrhea, Events [n (%) n]: events n” value [4] was 22. The “Diarrhea, Events [n (%) n]: patients (%)” value [4] was 5.2%, the “Diarrhea, Events [n (%) n]: patients n” value [4] was 16 and the “Diarrhea, Events per Subject per Year” value [4] was 0.079 Events per Subject per Year. For the same compound, the “Diarrhea, Relative Risk of EAIR (95% CL) Versus Placebo” value [4] was 0.78 (0.40, 1.51), the “Documented hypoglycemia <55 mg/dL, Events per Subject per Year” value [4] was 13.41 Events per Subject per Year and the “Genital Mycotic Infections (female), EAIR per 1,000 Subject-years (95% CL)” value [4] was 240.02 (156.86, 323.19) per 1,000 Subject-years. For the same compound, the “Genital Mycotic Infections (female), Events [n (%) n]: events n” value [4] was 41, the “Genital Mycotic Infections (female), Events [n (%) n]: patients (%)” value [4] was 21.6% and the “Genital Mycotic Infections (female), Events per Subject per Year” value [4] was 0.308 Events per Subject per Year. The “Genital Mycotic Infections (female), Relative Risk of EAIR (95% CL) Versus Placebo” value [4] was 3.37 (1.65, 7.46), the “Genital Mycotic Infections (male), EAIR per 1,000 Subject-years (95% CL)” value [4] was 41.05 (8.20, 73.89) per 1,000 Subject-years and the “Genital Mycotic Infections (male), Events [n (%) n]: events n” value [4] was 7. The “Genital Mycotic Infections (male), Events [n (%) n]: patients (%)” value [4] was 3.8%, the “Genital Mycotic Infections (male), Events per Subject per Year” value [4] was 0.048 Events per Subject per Year and the “Genital Mycotic Infections (male), Relative Risk of EAIR (95% CL) Versus Placebo” value [4] was 5.96 (0.88, 138.01). For the same compound, the “Positively Adjudicated Diabetic Ketoacidosis, EAIR per 1,000 Subject-years (95% CL)” value [4] was 28.62 (8.79, 48.46) per 1,000 Subject-years, the “Positively Adjudicated Diabetic Ketoacidosis, Events [n (%) n]: events n” value [4] was 9 and the “Positively Adjudicated Diabetic Ketoacidosis, Events [n (%) n]: patients (%)” value [4] was 2.6%. The “Positively Adjudicated Diabetic Ketoacidosis, Events per Subject per Year” value [4] was 0.032 Events per Subject per Year, the “Positively Adjudicated Diabetic Ketoacidosis, Relative Risk of EAIR (95% CL) Versus Placebo” value [4] was 7.77 (1.24, 173.82) and the “Positively Adjudicated Severe Hypoglycemia, EAIR per 1,000 Subject-years (95% CL)” value [4] was 46.51 (21.23, 71.80) per 1,000 Subject-years. For the same compound, the “Positively Adjudicated Severe Hypoglycemia, Events [n (%) n]: events n” value [4] was 25, the “Positively Adjudicated Severe Hypoglycemia, Events [n (%) n]: patients (%)” value [4] was 4.3% and the “Positively Adjudicated Severe Hypoglycemia, Events per Subject per Year” value [4] was 0.089 Events per Subject per Year. For the same compound, the “Positively Adjudicated Severe Hypoglycemia, Relative Risk of EAIR (95% CL) Versus Placebo” value [4] was 0.57 (0.28, 1.14), the “Genital Mycotic Infections (male), Events [n (%) n]: patients n” value (400 mg (N = 99), Baseline BMI <27 kg/m^2) was 9 and the “Genital Mycotic Infections (female), Events [n (%) n]: patients n” value (400 mg (N = 113), Baseline BMI <27 kg/m^2) was 19. The “Genital Mycotic Infections (male), Events [n (%) n]: patients n” value (400 mg (N = 154), Baseline BMI ≥27 kg/m^2) was 7, the “Genital Mycotic Infections (female), Events [n (%) n]: patients n” value (400 mg (N = 159), Baseline BMI ≥27 kg/m^2) was 28 and the “Positively Adjudicated Diabetic Ketoacidosis, Events [n (%) n]: patients n” value [5] was 9. The “Positively Adjudicated Severe Hypoglycemia, Events [n (%) n]: patients n” value [5] was 11, the “Positively Adjudicated Diabetic Ketoacidosis, Events [n (%) n]: patients n” value [6] was 11 and the “Positively Adjudicated Severe Hypoglycemia, Events [n (%) n]: patients n” value [6] was 12.
